{"source": "patent US6338963B1", "about": "“Use of carbon monoxide dependent guanylyl cyclase modifiers to stimulate neuritogenesis” (NeoTherapeutics, Inc., priority 1994, dated 2002)", "key": {"[1]": {"system": "TGFβ2", "test": "Western blot of astrocyte cytosolic proteins: TGFβ2", "format": "cell-based, rat", "experimental": "Western blot analysis of cytosolic proteins from cultured astrocytes was performed to detect the factors NGF and TGFβ2. The results are shown in FIG. 58A for NGF at 6 and 12 hours and in FIG. 58B for TGFβ2 at 6 and 12 hours.\nWestern blot analysis of cytosolic proteins deriving from cultured astrocytes treated for 6 or 12 hours with 100 μM AIT-082 was performed. AIT-082 is able to promote the production of neurotrophic factors from rat cultured astrocytes as measured by Western blot analysis. The results are shown in FIG. 62A for NGF and in FIG. 62B for TGFβ2. Electrophoresis was performed in 12% (for NBF) or 15% (for TGFβ2) SDS-PAGE (20 μg of total protein per lane). The separated proteins were transferred onto a PVDF membrane (Bio-Rad Laboratories, Italy)."}, "[2]": {"system": "rat cultured astrocytes", "test": "Release of radioactively labeled adenine-based purines from rat cultured astrocytes", "format": "cell-based"}, "[3]": {"system": "cGMP levels in PC12 cells", "test": "cGMP levels in PC12 cells (radioimmunoassay)", "format": "cell-based, rat", "conditions": "NGF-primed PC12 cells", "experimental": "Initially, PC-12 cells were primed with 40 ng/ml NGF for 3 days in low serum medium (1.5% horse serum+5% fetal calf serum). Cells were seeded onto assay plates in low serum medium containing 40 ng/ml NGF and incubated for 1 hour. The medium was changed to low arginine medium (80 μM) with no serum and NGF and papaverine ([…]) where indicated. Test compounds were added for the indicated time and the reaction was stopped by adding 5% TCA containing 10,000 dpm of ^3H-cGMP. cGMP was assayed by the radioimmunoassay method of Maurice (Mol. Pharmacol. 37: 671-681, 1990). TCA was purified by adding powdered charcoal (5 g) and filtering the mixture through Whatman #1 paper. This removed contaminants in the TCA that otherwise interfere with the radioimmunoassay (RIA) of cGMP.\nIt was necessary to purify the cGMP from cAMP and other contaminants before radioimmunoassay since these other materials can interfere with the assay. Briefly, the TCA solution was applied to Dowex columns (50W-8X, 200-400 mesh) and eluted. A neutral alumina column was then placed under each Dowex column. The cGMP was eluted from the Dowex columns into neutral alumina columns by adding 4 mL of 0.05 M HCl to each Dowex column. The neutral alumina columns were then sequentially rinsed with 2 ml of HCl, 4 mL water and finally with 0.2 M sodium acetate (pH 6.2). The cGMP collected for the RIA eluted in 1 ML of sodium acetate with a recovery between 50-65%. The cGMP was assayed using a Dupont RIA kit."}, "[4]": {"system": "MAP kinases ERK1 (44 kDa) and ERK2 (42 kDa)", "test": "Western blot of phospho-ERK1/2 in cultured astrocytes", "format": "cell-based, rat", "conditions": "for activation (phosphorylation) of MAP kinases ERK1 and ERK2: astrocyte cytosolic proteins", "experimental": "In FIG. 60, the activation of MAP kinases ERK1 (44 kDa) and ERK2 (42 kDa) by guanosine is shown. Cultured astrocytes were harvested at 4° C. in lysis buffer specific for MAP kinase: 25 mM Tris buffer, pH 7.4, containing 150 mM NaCl, 100 μM sodium orthovanadate, 1.5 mM MgCl2, 1.0 mM EDTA, 1% NP40, 10% glycerol, 1 mM PMSF, 5 μg/ml leupeptin, and 10 μg/ml aprotinin and sonicated and centrifuged at 14,000 rpm for 5 min. Aliquots of the supernatants were processed for the assessment of protein concentration (M. M. Bradford, “A Rapid and Sensitive Method for the Quantitation of Microgram Quantities of Protein Using the Principle of Protein-Dye Binding,” Anal. Biochem. 72: 248-254 (1976)). Electrophoresis was performed in 12% SDS-PAGE, using 20 μg of total protein per lane and separated proteins were then transferred onto a PVDF membrane (Bio-Rad Laboratories, Italy). Membranes were first incubated with polyclonal primary antibody (rabbit phospho-ERK1/2 antibody, New England Biolabs, Germany; final dilution 1:1000) for 1 hour and then with donkey anti-rabbit HPR-conjugated secondary antibody (Amersham, Italy; final dilution 1:5000) for another 1 hour, both at room temperature. Immunocomplexes were visualized using the enhancing chemiluminescence detection system (ECL) (Amersham, Italy).\nThis activation was no longer evident after 10 minutes or 20 minutes of stimulation. […] This effect is likely independent of the activity of growth factors, such as NGF, that also act through this molecular pathway. Cultured astrocytes were harvested at 4° C. in lysis buffer specific for MAP kinase: 25 mM Tris buffer, pH 7.4, containing 150 mM NaCl, 100 μM sodium orthovanadate, 1.5 mM MgCl2, 1.0 mM EDTA, 1% NP40, 10% glycerol, 1 mM PMSF, 5 μg/ml leupeptin, and 10 μg/ml aprotirin and sonicated and centrifuged at 14,000 prm for 5 min. Aliquots of the supernatants were processed for the assessment of protein concentration (Bradford, 1976). […]"}}}
{"smiles": "O=C(CCn1cnc2c(=O)[nH]cnc21)Nc1ccc(C(=O)O)cc1", "note": "[AIT-082, N-4-carboxyphenyl-3-(6-oxohydropurin-9-yl)propanamide]", "values": [{"measurement": "intracellular levels of TGFβ2", "setting": "[1]; 100 μM AIT-082, 6 or 12 hours", "value": "increased in time-dependent manner"}, {"measurement": "outflow of radioactive adenine-based purines", "setting": "[2]; astrocytes exposed for one hour", "value": "dose-dependent increase"}, {"measurement": "release of adenosine and inosine", "setting": "[2]; first hour of the release", "value": "increased the release of adenosine and inosine in a dose-dependent fashion"}, {"measurement": "release of hypoxanthine and the adenine nucleotides ATP, ADP, or AMP", "setting": "[2]; first hour of the release", "value": "without effecting the release"}, {"measurement": "cGMP in PC12 cells", "setting": "[3]", "value": "increased the production of cGMP"}, {"measurement": "time of maximal activation of the enzyme cascade", "setting": "[4]; AIT-082 100 μM, no longer evident after 10 or 20 minutes", "value": 5, "unit": "min"}, {"measurement": "activation (phosphorylation) of MAP kinases ERK1 and ERK2", "setting": "[4]", "value": "stimulated the phosphorylation of MAP kinases ERK1 (44 kDa) and ERK2 (42 kDa)"}]}
{"smiles": "Nc1nc2c(ncn2[C@@H]2O[C@H](CO)[C@@H](O)[C@H]2O)c(=O)[nH]1", "note": "[guanosine]", "values": [{"measurement": "intracellular content of TGFβ2", "setting": "[1]; guanosine, 6 and 12 hours", "value": "increased the intracellular content of NGF and TGFβ2 in time-dependent fashion"}, {"measurement": "ADP, radioactivity released in the culture medium", "setting": "[2]; 300 μM, 1 hour", "value": "0.84 ± 0.09", "unit": "cpm × 10^3"}, {"measurement": "AMP, proportional release", "setting": "[2]; 300 μM, 1 hour", "value": "(12.3 ± 1.7) percentage of the total [^3H]-purines released"}, {"measurement": "AMP, radioactivity released in the culture medium", "setting": "[2]; 300 μM, 1 hour", "value": "1.58 ± 0.22", "unit": "cpm × 10^3"}, {"measurement": "ATP, proportional release", "setting": "[2]; 300 μM, 1 hour", "value": "(5.5 ± 0.7) percentage of the total [^3H]-purines released"}, {"measurement": "ATP, radioactivity released in the culture medium", "setting": "[2]; 300 μM, 1 hour", "value": "0.71 ± 0.09", "unit": "cpm × 10^3"}, {"measurement": "Adenosine, radioactivity released in the culture medium", "setting": "[2]; 300 μM, 1 hour", "value": "1.53 ± 0.10", "unit": "cpm × 10^3"}, {"measurement": "Hypoxanthine, proportional release", "setting": "[2]; 300 μM, 1 hour", "value": "(24.7 ± 1.5) percentage of the total [^3H]-purines released"}, {"measurement": "Hypoxanthine, radioactivity released in the culture medium", "setting": "[2]; 300 μM, 1 hour", "value": "3.41 ± 0.20", "unit": "cpm × 10^3"}, {"measurement": "Inosine, radioactivity released in the culture medium", "setting": "[2]; 300 μM, 1 hour", "value": "4.64 ± 0.51", "unit": "cpm × 10^3"}, {"measurement": "ADP, proportional release", "setting": "[2]; 300 μM, 3 hours", "value": "(4.0 ± 0.6) percentage of the total [^3H]-purines released"}, {"measurement": "ADP, radioactivity released in the culture medium", "setting": "[2]; 300 μM, 3 hours", "value": "0.50 ± 0.07", "unit": "cpm × 10^3"}, {"measurement": "AMP, proportional release", "setting": "[2]; 300 μM, 3 hours", "value": "(11.9 ± 1.0) percentage of the total [^3H]-purines released"}, {"measurement": "AMP, radioactivity released in the culture medium", "setting": "[2]; 300 μM, 3 hours", "value": "1.37 ± 0.14", "unit": "cpm × 10^3"}, {"measurement": "ATP, proportional release", "setting": "[2]; 300 μM, 3 hours", "value": "(3.1 ± 0.32) percentage of the total [^3H]-purines released"}, {"measurement": "ATP, radioactivity released in the culture medium", "setting": "[2]; 300 μM, 3 hours", "value": "0.39 ± 0.04", "unit": "cpm × 10^3"}, {"measurement": "Adenosine, proportional release", "setting": "[2]; 300 μM, 3 hours", "value": "(9.3 ± 0.9) percentage of the total [^3H]-purines released"}, {"measurement": "Adenosine, radioactivity released in the culture medium", "setting": "[2]; 300 μM, 3 hours", "value": "1.16 ± 0.15", "unit": "cpm × 10^3"}, {"measurement": "Hypoxanthine, proportional release", "setting": "[2]; 300 μM, 3 hours", "value": "(26.3 ± 2.7) percentage of the total [^3H]-purines released"}, {"measurement": "Hypoxanthine, radioactivity released in the culture medium", "setting": "[2]; 300 μM, 3 hours", "value": "3.29 ± 0.34", "unit": "cpm × 10^3"}, {"measurement": "Inosine, proportional release", "setting": "[2]; 300 μM, 3 hours", "value": "(3.25 ± 3.3) percentage of the total [^3H]-purines released"}, {"measurement": "Inosine, radioactivity released in the culture medium", "setting": "[2]; 300 μM, 3 hours", "value": "4.09 ± 0.41", "unit": "cpm × 10^3"}, {"measurement": "cGMP in PC12 cells", "setting": "[3]", "value": "increased intracellular cGMP"}, {"measurement": "activation (phosphorylation) of MAP kinases ERK1 and ERK2", "setting": "[4]", "value": "activation"}]}
